Measurements: paper PMC12880750, “Mechanistic insights and in vivo HIV suppression by the BRD4-targeting small molecule ZL0580” (PLOS Pathogens, 2026)
Where two headings read alike, the source gives them in different places.

Columns and labels:
BRD4 BD2 WT = target: T1, BRD4 BD2 WT (Homo sapiens, UniProt O60885); assay: Thermal shift assay (TSA/DSF), BD2 WT; type: binding; settings: eight increasing concentrations
T1 construct: Constructs used for mutagenesis, including wild-type BD1 (BD1 WT), BD1 with an E151A mutation (BD1 E151A), and wild-type BD2 (BD2 WT); GST (cleaved yes); made in house
Experimental: (§1) The melting temperatures shifts (ΔTm) were measured and the ΔTm curves as a function of compound-to-protein ratios were generated (Fig 2B–2C). […] As an additional control, the Tm of WT BD1 and E151A mutant in the absence of compound was also measured by TSA.
(§2) Plasmid construction and subsequent protein expression and purification of BRD4 proteins were performed using OverExpress C43(DE3) bacterial competent cells (Lucigen) as described in our previous studies. In brief, 12 L of bacterial cultures grown to OD600 between 0.6-0.8 were induced at 37°C for 4 h by 1 mM isopropyl […] (IPTG). Bacterial sonication supernatant in the lysis buffer (500 mM NaCl, 20 mM Tris-HCl pH 7.9 at 4°C, 20% glycerol, 1 mM EDTA, 0.2 mM DTT, and protease inhibitors) was incubated with glutathione (GSH) agarose beads (GOLDBIO, G-250–100) overnight with rotation at 4°C. The protein-bound GSH beads were washed three times with the lysis buffer and digested with human rhinovirus 3C protease (HRV-P3C; Thermal Fisher 88946) at 4°C for 4 h, according to the manufacture’s procedure, to remove GST tag from BD1/2 proteins. Untagged BRD4-BD1 and -BD2 were separated from HRV-P3C via passing through a HiTrap Q HP anion exchange chromatography column (GE Healthcare, GE17-1154-01) and eluted by a salt gradient from 100 mM to 1 M NaCl. […]

BRD4 BD1 E151A = target: T2, BRD4 BD1 E151A (Homo sapiens, UniProt O60885, E151A); assay: Thermal shift assay (TSA/DSF), BD1 E151A mutant; type: binding; settings: eight increasing concentrations
T2 construct: Constructs used for mutagenesis, including wild-type BD1 (BD1 WT), BD1 with an E151A mutation (BD1 E151A), and wild-type BD2 (BD2 WT); GST (cleaved yes); made in house
Experimental: as §1, §2

J-Lat cells (clone 10.6) = assay: RNA-Seq differential gene expression; type: cell-based, human; settings: 5 μM, 24 hours, vs. NC; p < 0.001 and log2 fold change > 1
Experimental: 24 hours after treatment, RNA was extracted from cells for sequencing analysis. RNA-Seq was conducted on duplicate samples for each condition.
Following the treatment, total RNA was extracted from the cells using the RNeasy Mini Kit (Qiagen) in accordance with the manufacturer’s instructions. To ensure the integrity and quality of the isolated RNA, samples were first quantified and then analyzed by agarose gel electrophoresis. Clear and intact ribosomal RNA bands confirmed that the RNA was of high quality and suitable for downstream applications. The verified RNA samples were subsequently submitted for high-throughput RNA sequencing (RNA-seq) to evaluate transcriptomic changes induced by the respective treatments. RNA sample quality was assessed using Agilent Bioanalyzer and samples with a RIN value larger than 7.0 were used for library preparation. RNA-Seq libraries were prepared using NEBNext Poly(A) mRNA Magnetic Isolation module (E7490) and NEBNext Ultra II Directional RNA Library Prep kit for illumina (E7760) following manufacturer’s recommended procedure. The library quality was assessed using Agilent Bioanalyzer High Sensitivity DNA chip and real-time PCR and pooled together for sequencing. The pooled library was sequenced on Illumina NextSeq 550 Mid Output 150 cycle kit for Paired End 75 bp reads targeting ~20 million paired reads per sample. The sequencing reads were mapped to human reference genome hg38 using STAR v2.7.5c [59] using recommended ENCODE parameters. Differential gene expression analysis was performed using Bioconductor DESeq 2 package [60].

[1] = system: CDK9 binding to HIV 5′-LTR in J-Lat cells (10.6); assay: ChIP-qPCR of CDK9 binding to HIV 5'-LTR; type: cell-based, human; settings: PMA (50ng/ml) + compound 5 μM, 24 hours
Experimental: Twenty-four hours later, cells were subjected to ChIP-qPCR using an anti-CDK9 antibody, with isotype IgG as the ChIP control.
24 hours after treatments, ChIP-qPCR was performed using a CDK9-specific antibody to examine the recruitment of CDK9 to HIV 5’-LTR in J-Lat cells. ChIP using an isotype IgG was included for normalization. Data were shown as fold change in the precipitated HIV 5′ LTR by the CDK9 antibody relative to the control isotype IgG for each treatment condition.
ChIP was performed using a method reported previously [41]. About 15 × 10⁶ J-Lat cells were treated according to the conditions described in the Main Text. After treatment, cells were collected, washed once with PBS, and resuspended in 10 mL PBS. To cross-link protein–DNA complexes, cells were fixed with 37% formaldehyde, and the reaction was quenched by adding 10Xglycine and incubating for 5 min at room temperature. The cells were then pelleted by centrifugation, and the pellets were incubated in ice-cold lysis buffer for 30 min. […] After extensive washing with the appropriate ChIP buffers, immune complexes were eluted, reverse cross-linked, and treated with proteinase K. DNA was purified using phenol–chloroform extraction and subsequently analyzed by qPCR. […] ChIP-qPCR results were quantified using the fold-enrichment method as previously reported [41].

[2] = In vivo pharmacokinetics in ICR mice; set-up: species or system male ICR mice; settings: mouse, plasma
Experimental: Animal experiments assessing PK and in vivo toxicity profile of ZL0580 was performed by the contracting research organization (CRO) Sundia. The studies were performed according to the NIH Guide for Care and Use of Experimental Animals. The PK studies of ZL0580 was performed using male ICR mice (18–22 g). The mice were randomly divided into two groups (n = 3). The mice of the group 1 were intravenously administrated with ZL0580 [10 mg/kg, in 10% DMSO + 10% Solutol HS 15 + 80% HP-β-CD (20%, w/v)] and the mice of the group 2 were orally administrated with ZL0580 [20 mg/kg, in 10% DMSO + 90% HP-β-CD (20%, w/v)]. Blood samples of group 1 and group 2 mice were collected at the indicated time points post treatment and put into heparinized centrifugation tubes, which were centrifuged under the condition of 6800 rpm and 4 °C for 6 min. The supernatant was collected and stored at -20 °C for further LC-MS analysis. Before the plasma concentrations (AUC) were determined, standard curves were generated with various concentrations of ZL0580 and the internal standard (IS). All PK parameters were calculated with WinNonlin 6.4 software.

[3] = Body weight / tolerability in HIV-infected Hu-mice; type: in vivo, CD34+ Hu-NSG mice (Hu-mice)
Excerpt: To assess general health of the mice and potential protective effects of the treatments, body weights of Hu-mice were closely monitored. […] There was a slight reduction in body weights of Hu-mice in the EV group following HIV infection. However, no statistically significant difference was detected as compared to the three treatment groups (Fig 6E).
Mice were 16-week-old at the initiation of the experiments. All mice received human CD34 + stem cells of a single donor and human immune cell reconstitution was confirmed for all mice. A total of 12 Hu-mice were initially included in the study with each tagged and assigned with a unique ID. At week 0, all Hu-mice were intravenously (IV) infected with HIV-1 JR-CSF at a single dose of 10ng HIV p24 equivalent virus per animal. Blood/plasma viral loads were monitored and quantified weekly by a single-step RT-qPCR until systemic HIV infection was established. […] At week 3, the remaining 11 Hu-mice were randomized into four groups for subsequent treatments: Empty Vehicle (EV) (n = 2), ART (n = 3), ZL0580 (n = 3), and ART + ZL0580 (n = 3). […] Plasma samples were collected from mice either weekly or biweekly for quantification of viral loads (RNA copies). Blood cells were also collected at weeks 7 and 13 for quantification of cell-associated HIV DNA in blood. Mouse weights were monitored after treatment.

BRD4 BD1 = system: BRD4 BD1; set-up: method as in PMID 31329163; settings: in vitro binding affinity; cited from earlier work
[4] = system: Tat recruitment to the HIV promoter in J-Lat cells (clone 10.6); set-up: method as in PMID 31329163; settings: cited from earlier work

O=C(Nc1ccc(C(F)(F)F)cc1)Nc1ccc(S(=O)(=O)N2CCC[C@H]2C(=O)Nc2ccccc2)cc1 [ZL0580]
Effect on stability of WT BD2 (TSA) (BRD4 BD2 WT): sparing BD2
Effect on stability of BD1 E151A mutant (TSA) (BRD4 BD1 E151A): almost no effect
Downregulated genes (J-Lat cells (clone 10.6)): 104 genes
Significantly regulated genes (total) (J-Lat cells (clone 10.6)): 166 genes
Upregulated genes (J-Lat cells (clone 10.6)): 62 genes
Reduction of CDK9 binding relative to PMA alone [1]: ~ 3.8 fold
AUC(0-t) ([2]; male, IV, 10 mg/kg, ICR mice): 14400 ± 3470 ng·h/mL
AUC(0-inf) ([2]; male, IV, 10 mg/kg, ICR mice, read-out: AUC0-∞): 14400 ± 3470 ng·h/mL
Cmax ([2]; IV (10 mg/kg), male ICR mice): 19300 ± 2790 ng/mL
MRT inf ([2]; IV (10 mg/kg), male ICR mice): 0.73 ± 0.12 h
clearance ([2]; IV (10 mg/kg), male ICR mice): 12 mL/min/kg
half-life ([2]; IV (10 mg/kg), male ICR mice): 0.91 ± 0.06 h
Vd ([2]; IV (10 mg/kg), male ICR mice, read-out: Vz): 0.95 ± 0.28 L/kg
AUC(0-t) ([2]; PO (20 mg/kg), male ICR mice): 5590 ± 1880 ng·h/mL
Cmax ([2]; PO (20 mg/kg), male ICR mice): 1470 ± 186 ng/mL
MRT inf ([2]; PO (20 mg/kg), male ICR mice): 3.18 ± 1.39 h
half-life ([2]; PO (20 mg/kg), male ICR mice): 2.54 ± 2.24 h
AUC(0-inf) ([2]; PO (20 mg/kg), male ICR mice, read-out: AUC0-inf): 5800 ± 2120 ng·h/mL
Tolerability in Hu-mice ([3]; daily intraperitoneal administration over the course of treatment): well tolerated
Body weights of Hu-mice ([3]; daily intraperitoneal administration, throughout the study): maintained stable body weights
IC50 (BRD4 BD1): 163 nM
Tat binding to the HIV promoter [4]: decreased
